Biological target: F508del-CFTR (Homo sapiens, UniProt P13569, DEL508-508)
Assay: HS-YFP kinetic fluorescence (iodide quenching rate) assay in CFBE41o− cells
Format: cell-based
Set-up: expressed in transfected cells; host or cells: CFBE41o- cells with expression of F508del-CFTR and HS-YFP (generated as in Sondo et al. 2011)
Settings: 50-500 nM, 1 and 10 μM, with and without VX-809 1 μM, FIG. 4
Method: CFBE41o- cells, with expression of F508del-CFTR and halogen-sensitive fluorescent protein, were generated as previously described (Sondo E, et al. Am J Physiol. 2011, 301, […]-[…]). For the test, the cells were seeded in 96-well microplates using a culture medium consisting of DMEM and Ham's F12 (1:1) supplemented with 10% foetal bovine serum. After 24 hours from seeding, the cells were treated for another 24 hours with the test compounds dissolved in the culture medium at the desired concentrations. As a negative control, the solvent of the compounds (dimethyl sulfoxide, DMSO) dissolved in the medium with the same dilution ratio (final percentage of DMSO:0.1-0.2%) was used. As a positive control, the corrector VX-809 (Selleck Chemicals, […]) was used at a concentration of 1 μM. After treatment, the medium with the compounds was removed and the cells were stimulated with forskolin (Sigma-Aldrich, F6886) 20 μM plus genistein (Sigma-Aldrich, G6649) 50 μM (in 60 μl of PBS saline) to maximally activate the CFTR channels present in the membrane. In a microplate reader (FLUOstar-Omega, BMG) the fluorescence of the cells in each well was read for 14 seconds, with an injection of 165 μl of a iodide-enriched saline (modified PBS where NaCl, 137 mM, has been replaced with the same concentration of NaI). The iodide transport activity in each well was evaluated by subtraction of the background fluorescence (measured in a well without cells), subsequent normalization with respect to the initial fluorescence and finally by interpolation of the fluorescence quenching phase with an exponential function that allows the derivation of the maximum slope (quenching rate, QR). The activity of the synthesized compounds was initially evaluated on the CFBE41o- cell line with expression of the mutated F508del-CFTR protein described above (Sondo E, et al. Am J Physiol. 2011, 301, […]-[…]). For this purpose, a functional assay based on the fluorescent YFP protein sensitive to halides, HS-YFP, was used (Galietta L J, et al. J Biol Chem. 2001, 276, 19723-19728). The fluorescence of the HS-YFP protein is turned off by iodide. Therefore, if exposed to a solution containing iodide, cells with HS-YFP expression show a quenching speed of the fluorescence which depends on the presence and activity of anionic channels. Under control conditions, the mutated CFTR protein presents a serious defect of stability and maturation, so it remains trapped in the endoplasmic reticulum not reaching the cell surface in enough quantity. In the HS-YFP-based assay, this defect results in a low anion transport capacity and therefore in a low quenching rate (QR). Treatment for a prolonged time (e.g. 24 hours) with a corrector determines an improvement in protein maturation with an increase in the number of CFTR channels present in the membrane and therefore an increase in the flux of iodide and QR. In a first phase, the authors screened about 200 heterocyclic molecules with various nitrogenated tricyclic scaffolds. Conditions previously described have been used for screening (Sondo E, et al. Am J Physiol. 2011, 301, […]-[…]) and reported herein in the Materials and Methods section. A threshold equal to the average value plus three times the standard deviation of the QR of wells without compounds (only DMSO in the culture medium) was used as a criterion for the selection of active compounds.

Sequence of F508del-CFTR (P13569 with tags, fused parts or gaps DEL508-508): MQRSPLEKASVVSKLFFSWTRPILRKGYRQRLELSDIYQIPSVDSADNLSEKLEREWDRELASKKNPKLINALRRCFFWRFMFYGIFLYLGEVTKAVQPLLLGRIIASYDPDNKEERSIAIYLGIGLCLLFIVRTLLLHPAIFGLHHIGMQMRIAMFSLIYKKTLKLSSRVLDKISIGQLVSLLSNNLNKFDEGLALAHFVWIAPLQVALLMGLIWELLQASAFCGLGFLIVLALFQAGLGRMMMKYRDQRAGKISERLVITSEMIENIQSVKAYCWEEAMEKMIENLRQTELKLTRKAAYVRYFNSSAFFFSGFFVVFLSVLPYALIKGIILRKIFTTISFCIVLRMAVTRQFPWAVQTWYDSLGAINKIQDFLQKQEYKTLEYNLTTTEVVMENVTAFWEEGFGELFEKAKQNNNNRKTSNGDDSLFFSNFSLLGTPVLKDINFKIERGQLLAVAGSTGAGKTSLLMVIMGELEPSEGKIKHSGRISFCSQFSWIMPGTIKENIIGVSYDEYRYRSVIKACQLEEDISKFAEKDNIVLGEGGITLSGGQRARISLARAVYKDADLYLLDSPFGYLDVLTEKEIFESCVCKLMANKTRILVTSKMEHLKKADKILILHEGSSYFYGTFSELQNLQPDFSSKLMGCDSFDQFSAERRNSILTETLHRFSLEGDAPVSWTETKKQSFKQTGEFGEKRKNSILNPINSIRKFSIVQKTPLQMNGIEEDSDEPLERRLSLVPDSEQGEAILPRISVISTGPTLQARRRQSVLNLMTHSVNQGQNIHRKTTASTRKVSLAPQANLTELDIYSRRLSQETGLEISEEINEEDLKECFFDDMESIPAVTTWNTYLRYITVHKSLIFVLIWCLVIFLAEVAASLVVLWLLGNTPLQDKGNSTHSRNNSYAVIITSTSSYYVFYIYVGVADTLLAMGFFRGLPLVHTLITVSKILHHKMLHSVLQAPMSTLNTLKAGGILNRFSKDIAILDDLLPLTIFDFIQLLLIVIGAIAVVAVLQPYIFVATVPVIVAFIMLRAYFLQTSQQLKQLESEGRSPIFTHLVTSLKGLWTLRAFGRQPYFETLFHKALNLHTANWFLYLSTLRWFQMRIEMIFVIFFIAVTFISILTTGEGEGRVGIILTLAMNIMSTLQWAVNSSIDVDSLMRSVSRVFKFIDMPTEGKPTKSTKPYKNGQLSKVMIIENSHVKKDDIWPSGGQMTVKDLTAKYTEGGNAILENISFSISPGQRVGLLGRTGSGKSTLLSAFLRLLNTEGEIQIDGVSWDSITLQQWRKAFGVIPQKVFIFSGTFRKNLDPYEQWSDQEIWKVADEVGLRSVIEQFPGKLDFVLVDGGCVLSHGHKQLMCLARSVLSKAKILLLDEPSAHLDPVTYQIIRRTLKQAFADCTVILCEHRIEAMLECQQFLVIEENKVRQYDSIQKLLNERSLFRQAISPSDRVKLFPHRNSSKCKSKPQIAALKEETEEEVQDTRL

Structure (SMILES) | corrective activity of TMA
Cc1cc(=O)oc2c1cc(C)c1occ(C)c12 [TMA, 4,6,4′-trimethylangelicin, reference compound] | ineffective at all concentrations

Same assay, conditions: Table 1; compound at 10 μM plus VX-809; (QRTOT − QRVX)/QRVX, HS-YFP assay

Structure (SMILES) | AI (%) additivity index [%]
CCOC(=O)c1c(Br)c2c(n1Cc1ccc(C)cc1C)-c1[nH]c(=O)c(S(=O)(=O)c3ccccc3)cc1CC2 [PP033, Ethyl 7-(benzenesulfonyl)-3-bromo-1-[(2,4-dimethylphenyl)methyl]-8-oxo-4,5,8,9-tetrahydro-1H-pyrrolo[3,2-h]quinoline-2-carboxylate] | 114
CCOC(=O)c1cc2c(n1Cc1ccc(F)cc1)-c1[nH]c(=O)c(S(=O)(=O)c3ccccc3)cc1CC2 [PP072, Ethyl 7-(benzenesulfonyl)-1-[(4-fluorophenyl)methyl]-8-oxo-4,5,8,9-tetrahydro-1H-pyrrolo[3,2-h]quinoline-2-carboxylate] | 420
CCOC(=O)c1cc2c(n1Cc1ccc(C(F)(F)F)cc1)-c1[nH]c(=O)c(S(=O)(=O)c3ccccc3)cc1CC2 [PP070, Ethyl 7-(benzenesulfonyl)-8-oxo-1-{[4-(trifluoromethyl)phenyl]methyl}-4,5,8,9-tetrahydro-1H-pyrrolo[3,2-h]quinoline-2-carboxylate] | 101
CC(C)OC(=O)c1c(Br)c2c(n1CC1CC1)-c1[nH]c(=O)c(S(=O)(=O)c3ccccc3)cc1CC2 [PP106, Propan-2-yl 7-(benzenesulfonyl)-3-bromo-1-(cyclopropylmethyl)-8-oxo-4,5,8,9-tetrahydro-1H-pyrrolo[3,2-h]quinoline-2-carboxylate] | 277
Cc1ccc(Cn2c(C(=O)O)cc3c2-c2[nH]c(=O)c(S(=O)(=O)c4ccccc4)cc2CC3)cc1C [PP094, 7-(Benzenesulfonyl)-1-[(3,4-dimethylphenyl)methyl]-8-oxo-4,5,8,9-tetrahydro-1H-pyrrolo[3,2-h]quinoline-2-carboxylic acid] | 47
CCOC(=O)c1cc2c(n1Cc1ccc(C)cc1)-c1[nH]c(=O)c(S(=O)(=O)c3ccc(C)cc3)cc1CC2 [PP023, Ethyl 7-(4-methylbenzene-1-sulfonyl)-1-[(4-methylphenyl)methyl]-8-oxo-4,5,8,9-tetrahydro-1H-pyrrolo[3,2-h]quinoline-2-carboxylate] | 89
Cc1cccc(Cn2c(C(=O)NC3CC3)cc3c2-c2[nH]c(=O)c(S(=O)(=O)c4ccccc4)cc2CC3)c1 [PP092, 7-(Benzenesulfonyl)-N-cyclopropyl-1-[(3-methylphenyl)methyl]-8-oxo-4,5,8,9-tetrahydro-1H-pyrrolo[3,2-h]quinoline-2-carboxamide] | 52
CCOC(=O)c1c(Br)c2c(n1CC1CC1)-c1[nH]c(=O)c(S(=O)(=O)c3ccccc3)cc1CC2 [PP065, Ethyl 7-(benzenesulfonyl)-3-bromo-1-(cyclopropylmethyl)-8-oxo-4,5,8,9-tetrahydro-1H-pyrrolo[3,2-h]quinoline-2-carboxylate] | 284
CCOC(=O)c1c(Br)c2c(n1Cc1ccc(F)cc1)-c1[nH]c(=O)c(S(=O)(=O)c3ccccc3)cc1CC2 [PP073, Ethyl 7-(benzenesulfonyl)-3-bromo-1-[(4-fluorophenyl)methyl]-8-oxo-4,5,8,9-tetrahydro-1H-pyrrolo[3,2-h]quinoline-2-carboxylate] | 442
Cc1cccc(Cn2c(C(N)=O)cc3c2-c2[nH]c(=O)c(S(=O)(=O)c4ccccc4)cc2CC3)c1 [PP082, 7-(Benzenesulfonyl)-1-[(3-methylphenyl)methyl]-8-oxo-4,5,8,9-tetrahydro-1H-pyrrolo[3,2-h]quinoline-2-carboxamide] | 31
COC(=O)c1c(Br)c2c(n1Cc1ccccc1C)-c1[nH]c(=O)c(S(=O)(=O)c3ccccc3)cc1CC2 [PP032, Methyl 3-bromo-1-(2-methylbenzyl)-8-oxo-7-(phenylsulfonyl)-4,5,8,9-tetrahydro-1H-pyrrolo[3,2-h]quinoline-2-carboxylate] | 133
CCOC(=O)c1c(Br)c2c(n1Cc1ccc(C)cc1)-c1[nH]c(=O)c(S(C)(=O)=O)cc1CC2 [PP036, Ethyl 3-bromo-7-(metansulfonyl)-1-[(4-methylphenyl)methyl]-8-oxo-4,5,8,9-tetrahydro-1H-pyrrolo[3,2-h]quinoline-2-carboxylate] | 23
CCOC(=O)c1cc2c(n1Cc1ccc(Cl)cc1)-c1[nH]c(=O)c(S(=O)(=O)c3ccccc3)cc1CC2 [PP017, Ethyl 1-(4-chlorobenzyl)-8-oxo-7-(phenylsulfonyl)-4,5,8,9-tetrahydro-1H-pyrrolo[3,2-h]quinoline-2-carboxylate] | 203
O=C(NC1CC1)c1cc2c(n1Cc1ccc(Br)cc1)-c1[nH]c(=O)c(S(=O)(=O)c3ccccc3)cc1CC2 [PP098, 7-(Benzenesulfonyl)-1-[(4-bromophenyl)methyl]-N-cyclopropyl-8-oxo-4,5,8,9-tetrahydro-1H-pyrrolo[3,2-h]quinoline-2-carboxamide] | 4

Same assay, conditions: Table 2; compound at 10 μM plus VX-809; (QRTOT − QRVX)/QRVX

Structure (SMILES) | AI additivity index [%]
CCOC(=O)c1c(Br)c2c(n1Cc1ccc(C)cc1)-c1[nH]c(=O)c(S(=O)(=O)c3ccccc3)cc1CCC2 [PP056, Ethyl 8-(benzenesulfonyl)-3-bromo-1-[(4-methylphenyl)methyl]-9-oxo-1,4,5,6,9,10-hexahydropyrrolo[3′,2′:6,7]cyclohepta[1,2-b]pyridine-2-carboxylate] | 60

Same assay, conditions: Table 3; compound at 10 μM plus VX-809; (QRTOT-QRVX)/QRVX

Structure (SMILES) | AI additivity index [%]
CCOC(=O)c1c(Br)c2c(n1Cc1cccc(C)c1)-c1nc(N)ncc1CC2 [SVQ4, Ethyl 2-amino-7-bromo-9-[(3-methylphenyl)methyl]-6,9-dihydro-5H-pyrrolo[3,2-h]quinazoline-8-carboxylate] | 4
CCOC(=O)c1cc2c(n1Cc1ccc(Br)cc1)-c1nc(NS(=O)(=O)c3ccccc3)ncc1CC2 [SVQ15, Ethyl 2-[(benzenesulfonyl)amino]-9-[(4-bromophenyl)methyl]-6,9-dihydro-5H-pyrrolo[3,2-h]quinazoline-8-carboxylate] | 100
CCOC(=O)c1c(Br)c2c(n1Cc1ccc(Br)cc1)-c1nc(NS(=O)(=O)c3ccccc3)ncc1CC2 [SVQ16, Ethyl 2-[(benzenesulfonyl)amino]-7-bromo-9-[(4-bromophenyl)methyl]-6,9-dihydro-5H-pyrrolo[3,2-h]quinazoline-8-carboxylate] | 98
CCOC(=O)c1c(Br)c2c(n1Cc1cccc(C)c1)-c1nc(NS(=O)(=O)c3ccccc3)ncc1CC2 [SVQ12, Ethyl 2-[(benzenesulfonyl)amino]-7-bromo-9-[(3-methylphenyl)methyl]-6,9-dihydro-5H-pyrrolo[3,2-h]quinazoline-8-carboxylate] | 152

Same assay, conditions: Table 4; compound at 10 μM plus VX-809; (QRTOT − QRVX)/QRVX

Structure (SMILES) | AI (%) additivity index [%]
CCOC(=O)c1c(Br)cc2n1CCCc1cc(S(=O)(=O)c3ccccc3)c(=O)[nH]c1-2 [QZN6, Ethyl 3-(benzenesulfonyl)-10-bromo-2-oxo-1,5,6,7-tetrahydro-2H-pyrido[2,3-c]pyrrolo[1,2-a]azepine-9-carboxylate] | 136

Same assay, conditions: Table 6; compound at 10 μM plus VX-809; (QRTOT-QRVX)/QRVX

Structure (SMILES) | AI (%) additivity index [%]
CCOC(=O)c1nn(Cc2ccc(C)c(C)c2)c2c1CCc1cc(S(=O)(=O)c3ccccc3)c(=O)[nH]c1-2 [PZ7, Ethyl 7-(benzenesulfonyl)-1-[(3,4-dimethylphenyl)methyl]-8-oxo-4,5,8,9-tetrahydro-1H-pyrazolo[4,3-h]quinoline-3-carboxylate] | 104

Same assay, conditions: relative to the analogue

Structure (SMILES) | structure-activity comparison of corrector potency/activity
CCOC(=O)c1c(Br)c2c(n1Cc1ccc(C)cc1C)-c1[nH]c(=O)c(S(=O)(=O)c3ccccc3)cc1CC2 [PP033, Ethyl 7-(benzenesulfonyl)-3-bromo-1-[(2,4-dimethylphenyl)methyl]-8-oxo-4,5,8,9-tetrahydro-1H-pyrrolo[3,2-h]quinoline-2-carboxylate] | reduction in activity compared to PP008
CCOC(=O)c1c(Br)c2c(n1Cc1ccc(C)cc1)-c1[nH]c(=O)c(S(=O)(=O)c3ccccc3)cc1CCC2 [PP056, Ethyl 8-(benzenesulfonyl)-3-bromo-1-[(4-methylphenyl)methyl]-9-oxo-1,4,5,6,9,10-hexahydropyrrolo[3′,2′:6,7]cyclohepta[1,2-b]pyridine-2-carboxylate] | more potent than the non-halogenated analogues

From patent US12410164B2, “Heterocyclic compounds and medical use thereof” (FONDAZIONE TELETHON, priority 2018, dated 2025)
